Source: the supplement of paper PMC13207355

Tests used:
Conditions in all cases: exposure time: 72 h
E57 [1] = patient-derived glioblastoma stem cells of mesenchymal subtype; test: surviving fraction (nuclei count normalised to DMSO); higher = more cells surviving (less toxic)
E21 [2] = patient-derived glioblastoma stem cells of mesenchymal subtype; test: as above
FT3469 [3] = normal neural stem cell line; test: as above
E13 [4] = patient-derived glioblastoma stem cells of classical subtype; test: as above
E34 [5] = patient-derived glioblastoma stem cells of proneural subtype; test: as above
E28 [6] = patient-derived glioblastoma stem cells of classical subtype; test: as above
E31 [7] = patient-derived glioblastoma stem cells of proneural subtype; test: as above
E57 [8] = test: phenotypic distance (Euclidean, principal components) from DMSO controls (arbitrary units); higher = stronger morphological change
E21 [9] = test: as above
FT3469 [10] = test: as above
E13 [11] = test: as above
E34 [12] = test: as above
E28 [13] = test: as above
E31 [14] = test: as above
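For phenotypic distance (Euclidean, principal components) from DMSO controls in this document: cell Painting imaging in 384-well plates, CellProfiler features reduced to at least 20 principal components, Euclidean distance versus same-plate DMSO vehicle wells (0.1% v/v), median over six images per well.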
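For surviving fraction (nuclei count normalised to DMSO) in this document: nuclei counted by high-content imaging of Hoechst-stained cells in laminin-coated 384-well plates, relative to 0.1% DMSO vehicle wells, with staurosporine as cell-death control.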

C=C(C)[C@H]1Cc2c(ccc3c2O[C@@H]2COc4cc(OC)c(OC)cc4[C@@H]2C3=O)O1 [Rotenone]
Conditions	phenotypic distance	surviving fraction
E13 [4], 4.1 nM	–	1.02
E13 [4], 12.3 nM	–	0.894
E13 [4], 37 nM	–	0.83
E13 [4], 111.1 nM	–	0.771
E13 [4], 333.3 nM	–	0.632
E13 [4], 1000 nM	–	0.566
E13 [4], 3000 nM	–	0.212
E13 [11], 4.1 nM	0.548	–
E13 [11], 12.3 nM	0.572	–
E13 [11], 37 nM	1.04	–
E13 [11], 111.1 nM	1.22	–
E13 [11], 333.3 nM	2.49	–
E13 [11], 1000 nM	3.77	–
E13 [11], 3000 nM	6.02	–
E21 [2], 4.1 nM	–	0.993
E21 [2], 12.3 nM	–	0.918
E21 [2], 37 nM	–	0.978
E21 [2], 111.1 nM	–	0.905
E21 [2], 333.3 nM	–	0.822
E21 [2], 1000 nM	–	0.511
E21 [2], 3000 nM	–	0.147
E21 [9], 4.1 nM	0.532	–
E21 [9], 12.3 nM	0.585	–
E21 [9], 37 nM	0.921	–
E21 [9], 111.1 nM	1.37	–
E21 [9], 333.3 nM	2.24	–
E21 [9], 1000 nM	3.52	–
E21 [9], 3000 nM	7.81	–
E28 [6], 4.1 nM	–	1.05
E28 [6], 12.3 nM	–	0.989
E28 [6], 37 nM	–	0.906
E28 [6], 111.1 nM	–	0.904
E28 [6], 333.3 nM	–	0.818
E28 [6], 1000 nM	–	0.648
E28 [6], 3000 nM	–	0.425
E28 [13], 4.1 nM	0.546	–
E28 [13], 12.3 nM	0.394	–
E28 [13], 37 nM	0.642	–
E28 [13], 111.1 nM	0.779	–
E28 [13], 333.3 nM	1.31	–
E28 [13], 1000 nM	2.44	–
E28 [13], 3000 nM	3.1	–
E31 [7], 4.1 nM	–	0.905
E31 [7], 12.3 nM	–	0.93
E31 [7], 37 nM	–	1
E31 [7], 111.1 nM	–	0.862
E31 [7], 333.3 nM	–	0.672
E31 [7], 1000 nM	–	0.385
E31 [7], 3000 nM	–	0.135
E31 [14], 4.1 nM	0.668	–
E31 [14], 12.3 nM	0.711	–
E31 [14], 37 nM	2.14	–
E31 [14], 111.1 nM	1.02	–
E31 [14], 333.3 nM	1.3	–
E31 [14], 1000 nM	2.13	–
E31 [14], 3000 nM	5.49	–
E34 [5], 4.1 nM	–	1.04
E34 [5], 12.3 nM	–	1.04
E34 [5], 37 nM	–	0.855
E34 [5], 111.1 nM	–	0.843
E34 [5], 333.3 nM	–	0.755
E34 [5], 1000 nM	–	0.786
E34 [5], 3000 nM	–	0.473
E34 [12], 4.1 nM	0.805	–
E34 [12], 12.3 nM	1	–
E34 [12], 37 nM	0.736	–
E34 [12], 111.1 nM	0.699	–
E34 [12], 333.3 nM	1.76	–
E34 [12], 1000 nM	1.95	–
E34 [12], 3000 nM	3.52	–
E57 [1], 4.1 nM	–	1.04
E57 [1], 12.3 nM	–	1.05
E57 [1], 37 nM	–	0.983
E57 [1], 111.1 nM	–	0.959
E57 [1], 333.3 nM	–	0.941
E57 [1], 1000 nM	–	0.821
E57 [1], 3000 nM	–	0.188
E57 [8], 4.1 nM	0.304	–
E57 [8], 12.3 nM	0.356	–
E57 [8], 37 nM	0.67	–
E57 [8], 111.1 nM	0.385	–
E57 [8], 333.3 nM	1.23	–
E57 [8], 1000 nM	1.95	–
E57 [8], 3000 nM	6.35	–
FT3469 [3], 4.1 nM	–	1.12
FT3469 [3], 12.3 nM	–	0.838
FT3469 [3], 37 nM	–	0.826
FT3469 [3], 111.1 nM	–	0.877
FT3469 [3], 333.3 nM	–	0.897
FT3469 [3], 1000 nM	–	0.744
FT3469 [3], 3000 nM	–	0.448
FT3469 [10], 4.1 nM	0.458	–
FT3469 [10], 12.3 nM	0.898	–
FT3469 [10], 37 nM	0.644	–
FT3469 [10], 111.1 nM	1.18	–
FT3469 [10], 333.3 nM	1.03	–
FT3469 [10], 1000 nM	2.14	–
FT3469 [10], 3000 nM	3.61	–

CC(=O)O[C@@]12CO[C@@H]1C[C@H](O)[C@@]1(C)C(=O)[C@H](O)C3=C(C)[C@@H](OC(=O)[C@H](O)[C@@H](NC(=O)OC(C)(C)C)c4ccccc4)C[C@@](O)([C@@H](OC(=O)c4ccccc4)[C@H]21)C3(C)C [Docetaxel]
Conditions	phenotypic distance	surviving fraction
E13 [4], 4.1 nM	–	0.244
E13 [4], 12.3 nM	–	0.245
E13 [4], 37 nM	–	0.23
E13 [4], 111.1 nM	–	0.267
E13 [4], 333.3 nM	–	0.26
E13 [4], 1000 nM	–	0.245
E13 [4], 3000 nM	–	0.233
E13 [11], 4.1 nM	5.48	–
E13 [11], 12.3 nM	5.06	–
E13 [11], 37 nM	5.13	–
E13 [11], 111.1 nM	5.06	–
E13 [11], 333.3 nM	5.38	–
E13 [11], 1000 nM	5.66	–
E13 [11], 3000 nM	5.29	–
E21 [2], 4.1 nM	–	0.256
E21 [2], 12.3 nM	–	0.291
E21 [2], 37 nM	–	0.273
E21 [2], 111.1 nM	–	0.267
E21 [2], 333.3 nM	–	0.324
E21 [2], 1000 nM	–	0.366
E21 [2], 3000 nM	–	0.306
E21 [9], 4.1 nM	5.81	–
E21 [9], 12.3 nM	6.42	–
E21 [9], 37 nM	6.23	–
E21 [9], 111.1 nM	6.28	–
E21 [9], 333.3 nM	6.05	–
E21 [9], 1000 nM	6.55	–
E21 [9], 3000 nM	6.95	–
E28 [6], 4.1 nM	–	0.337
E28 [6], 12.3 nM	–	0.342
E28 [6], 37 nM	–	0.315
E28 [6], 111.1 nM	–	0.374
E28 [6], 333.3 nM	–	0.359
E28 [6], 1000 nM	–	0.377
E28 [6], 3000 nM	–	0.43
E28 [13], 4.1 nM	3.2	–
E28 [13], 12.3 nM	3.04	–
E28 [13], 37 nM	3.71	–
E28 [13], 111.1 nM	4	–
E28 [13], 333.3 nM	4.1	–
E28 [13], 1000 nM	3.51	–
E28 [13], 3000 nM	3.95	–
E31 [7], 4.1 nM	–	0.175
E31 [7], 12.3 nM	–	0.112
E31 [7], 37 nM	–	0.146
E31 [7], 111.1 nM	–	0.157
E31 [7], 333.3 nM	–	0.134
E31 [7], 1000 nM	–	0.164
E31 [7], 3000 nM	–	0.2
E31 [14], 4.1 nM	3.61	–
E31 [14], 12.3 nM	4.17	–
E31 [14], 37 nM	4.04	–
E31 [14], 111.1 nM	3.51	–
E31 [14], 333.3 nM	4.45	–
E31 [14], 1000 nM	4.14	–
E31 [14], 3000 nM	3.26	–
E34 [5], 4.1 nM	–	0.43
E34 [5], 12.3 nM	–	0.452
E34 [5], 37 nM	–	0.497
E34 [5], 111.1 nM	–	0.38
E34 [5], 333.3 nM	–	0.438
E34 [5], 1000 nM	–	0.423
E34 [5], 3000 nM	–	0.551
E34 [12], 4.1 nM	4.14	–
E34 [12], 12.3 nM	3.76	–
E34 [12], 37 nM	3.17	–
E34 [12], 111.1 nM	3.96	–
E34 [12], 333.3 nM	3.99	–
E34 [12], 1000 nM	3.89	–
E34 [12], 3000 nM	3.75	–
E57 [1], 4.1 nM	–	0.0834
E57 [1], 12.3 nM	–	0.0809
E57 [1], 37 nM	–	0.078
E57 [1], 111.1 nM	–	0.0677
E57 [1], 333.3 nM	–	0.0873
E57 [1], 1000 nM	–	0.0902
E57 [1], 3000 nM	–	0.109
E57 [8], 4.1 nM	5.76	–
E57 [8], 12.3 nM	5.68	–
E57 [8], 37 nM	5.22	–
E57 [8], 111.1 nM	5.42	–
E57 [8], 333.3 nM	5.4	–
E57 [8], 1000 nM	5.4	–
E57 [8], 3000 nM	5.26	–
FT3469 [3], 4.1 nM	–	0.529
FT3469 [3], 12.3 nM	–	0.614
FT3469 [3], 37 nM	–	0.452
FT3469 [3], 111.1 nM	–	0.513
FT3469 [3], 333.3 nM	–	0.572
FT3469 [3], 1000 nM	–	0.497
FT3469 [3], 3000 nM	–	0.556
FT3469 [10], 4.1 nM	4.07	–
FT3469 [10], 12.3 nM	4.02	–
FT3469 [10], 37 nM	3.93	–
FT3469 [10], 111.1 nM	4.46	–
FT3469 [10], 333.3 nM	4.18	–
FT3469 [10], 1000 nM	4.11	–
FT3469 [10], 3000 nM	4.57	–
